{"source": "paper PMC12386283", "about": "“Elucidating the Complex Structural and Molecular Mechanisms Driving P-Glycoprotein-Mediated Transport of Cardiac Glycosides” (International Journal of Molecular Sciences, 2025)", "key": {"[1]": {"target": "T1, wild-type mouse Pgp (MDR3) (Mus musculus, UniProt P21447)", "T1 sequence (P21447 whole entry)": "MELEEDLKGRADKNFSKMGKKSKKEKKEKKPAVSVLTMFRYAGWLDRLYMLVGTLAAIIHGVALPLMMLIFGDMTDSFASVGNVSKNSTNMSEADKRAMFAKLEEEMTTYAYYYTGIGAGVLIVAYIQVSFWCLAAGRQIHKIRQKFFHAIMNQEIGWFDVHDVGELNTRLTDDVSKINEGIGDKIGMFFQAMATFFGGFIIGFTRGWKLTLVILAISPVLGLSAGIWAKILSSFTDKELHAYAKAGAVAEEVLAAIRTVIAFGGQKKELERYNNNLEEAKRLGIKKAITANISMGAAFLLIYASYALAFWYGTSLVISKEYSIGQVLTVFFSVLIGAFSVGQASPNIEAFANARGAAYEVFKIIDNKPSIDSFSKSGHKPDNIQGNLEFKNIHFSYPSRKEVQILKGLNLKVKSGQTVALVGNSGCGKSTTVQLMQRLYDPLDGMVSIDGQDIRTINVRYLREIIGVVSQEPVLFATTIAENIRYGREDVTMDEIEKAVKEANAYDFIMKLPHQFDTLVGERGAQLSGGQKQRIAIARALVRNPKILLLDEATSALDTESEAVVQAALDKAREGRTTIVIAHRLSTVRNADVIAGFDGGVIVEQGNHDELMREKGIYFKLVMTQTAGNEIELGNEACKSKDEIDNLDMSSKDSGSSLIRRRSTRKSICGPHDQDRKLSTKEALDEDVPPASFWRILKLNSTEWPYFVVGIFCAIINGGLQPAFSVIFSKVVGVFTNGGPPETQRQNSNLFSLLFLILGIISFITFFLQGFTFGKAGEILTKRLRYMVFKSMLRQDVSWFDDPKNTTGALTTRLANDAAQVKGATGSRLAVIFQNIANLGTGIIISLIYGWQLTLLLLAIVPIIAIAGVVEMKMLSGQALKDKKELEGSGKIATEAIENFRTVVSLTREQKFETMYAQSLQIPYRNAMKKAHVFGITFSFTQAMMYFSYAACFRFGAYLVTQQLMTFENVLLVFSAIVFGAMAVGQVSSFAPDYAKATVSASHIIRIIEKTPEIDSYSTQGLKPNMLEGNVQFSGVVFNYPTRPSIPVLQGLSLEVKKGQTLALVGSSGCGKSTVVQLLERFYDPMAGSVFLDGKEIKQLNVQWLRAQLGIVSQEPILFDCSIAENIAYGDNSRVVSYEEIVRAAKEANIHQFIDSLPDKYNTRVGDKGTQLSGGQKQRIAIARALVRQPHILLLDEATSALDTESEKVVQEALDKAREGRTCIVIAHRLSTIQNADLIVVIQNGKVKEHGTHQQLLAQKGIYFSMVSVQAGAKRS", "assay": "biochemical", "protocol": "(§1) Overexpression of wild-type mouse Pgp (MDR3) was achieved by using genetically engineered strains of Pichia pastoris with a 6X histidine tag. The cells were cultured in glycerol media, and methanol was used to induce the overexpression of Pgp at the Bioexpression and Fermentation Facility (BFF), University of Georgia, Athens, GA, USA. A repeated cycle of freezing using liquid nitrogen, blending, and thawing was used to lyse the Pgp-expressing P. pastoris cells. The protein was purified using affinity chromatography with nickel-nitrilotriacetic acid (Ni-NTA) resin (Thermo Fisher Scientific, Waltham, MA, USA). DDM was used to solubilize the protein, and the solution was concentrated using Amicon Ultra-15 100 kDa cut-off filters (EMD Millipore, Billerica, MA, USA). The concentration of purified protein was measured at 280 nm using a calculated extinction coefficient of 1.28 per mg mL^−1 on a Nanodrop (DeNovix, Wilmington, DE, USA). […] The purified DDM-solubilized Pgp was aliquoted and stored at −80 °C for future analysis.\n(§2) Approximately 40 µL of DDM-solubilized Pgp was dialyzed for two hours against HEPES buffer (20 mM HEPES, 100 mM NaCl, 5 mM MgCl2, 2 mM DTT, pH 7.4) to remove any remnants of the detergent, DDM. The dialyzed protein was mixed with 4 mg mL^−1 of the extruded liposomes and incubated on ice for at least one hour to allow Pgp to integrate into the liposomes. To remove any additional detergent and further facilitate Pgp integration into the liposome, the solution was dialyzed for a second time for two hours in HEPES buffer to form proteoliposomes, and the concentration of Pgp reconstituted in liposomes was determined using the Bio-Rad DC Protein assay. Finally, the solution was aliquoted and stored at −80 °C for future use.\nThe intrinsic tryptophan residues in the protein can be selectively excited and emitted at 295 nm and 330 nm wavelengths, respectively. The binding of the drug to the protein can alter the spatial arrangement encountered by the tryptophan residue(s) and thereby regulate the fluorescence intensity of the protein [52]. […] Proteoliposomes diluted to 1 µM in Chifflet buffer containing 2 mM DTT were titrated against varying concentrations of drugs. The intrinsic protein fluorescence was measured at 330 nm upon excitation at 295 nm using an Olis DM 45 spectrophotometer (Olis Corporation, Bogart, GA, USA). To nullify the effect of Rayleigh bands on the observed spectra, a 10 nm band-pass filter was inserted on the excitation and emission paths of the spectrophotometer. The drug-induced quenching of intrinsic Pgp fluorescence was corrected (Fcorrected) for factors such as dilution, background fluorescence, and inner filter effects using the equation mentioned below (Equation (2)).(2) Fcorrected=F−B10^εexbex+εembemQ/2 where Fcorrected = Drug-induced quenching of intrinsic Pgp fluorescence; F = Emitted intrinsic Pgp fluorescence at 330 nm; [Q] = Concentration of drug; εex and εem = Excitation and emission extinction coefficients, respectively; bex and bem = Path lengths of excitation (0.4 mm) and emission (10 mm) wavelengths, respectively; and B = Background fluorescence measured from drug and solvent.\nThe resulting quenching curves were fit using a modified Stern-Volmer equation (Equation (3)), as follows:(3) Fcorrected=FOcorrected/1+KsvQ+Funquenched where Fcorrected = The corrected fluorescence; F0(corrected) = Fluorescence recorded in the absence of drug; [Q] = Concentration of drug; Ksv = Stern–Volmer constant; and F(unquenched) = unquenched fluorescence."}, "[2]": {"target": "T1, wild-type mouse Pgp (MDR3)", "protocol": "as §1, §2\nAcrylamide, an aqueous collisional quencher, can be used to determine the changes in conformation upon Pgp-drug interaction. The principle of this technique is that as the drug interacts with the protein, the conformation of the accessible tryptophan residues in the protein also changes, resulting in a shift in fluorescence intensity. For this experiment, to measure the fluorescence of Pgp reconstituted in liposomes, in the presence (250 µM) or absence of drug(s), the excitation and emission wavelengths used were 295 nm and 330 nm, respectively. The proteoliposomes were diluted to a final concentration of 1 µM in Chifflet buffer (pH 7.4) containing 2 mM DTT, and it was titrated against an increasing concentration of acrylamide. A concentration of 11 µM N-acetyl-L-tryptophanamide (NATA), an analog of tryptophan, was used as a positive control to determine non-specific quenching. A saturated concentration of AMPPNP (3.2 mM), a non-hydrolysable form of ATP, was used to generate an outward-open conformation of Pgp. All the experiments for acrylamide quenching were performed at 21 °C. To correct the fluorescence intensities for background, dilution, and inner filter effects, […] was used. A Stern–Volmer plot was constructed with F0(corrected)/F(corrected) versus acrylamide concentration. The slope of the curve determined the degree of quenching, and it was related to the Stern–Volmer constant (Ksv) by Equation (4), as follows:(4) Focorrected/Fcorrected=1+KsvQ where F0(corrected)/F(corrected) = Stern–Volmer plot; Ksv = Stern–Volmer constant; and [Q] = acrylamide concentration."}, "[3]": {"target": "T1, wild-type mouse Pgp (MDR3)", "description": "The STDD NMR technique is a robust method used to characterize the interaction between a drug and receptor protein [36, 86]. This technique utilizes a saturated low-strength radio frequency (RF) to selectively excite the receptor protein. […] Due to the localization of Pgp, most of its substrates are lipophilic, resulting in a probable non-specific interaction between its substrates and liposomes in the observed STD NMR spectrum. Therefore, STD NMR of liposomes in the presence of drugs was performed. The resulting spectrum was subtracted from the ^1H STD NMR spectrum obtained from the drug in the presence of proteoliposome (Pgp reconstituted into liposome) to achieve a saturation transfer double-difference (STDD) NMR spectrum, which nullified the STD observations of the drugs in the presence of liposomes.\nThis technique was performed as previously described. […] The NMR tubes with the sample were centrifuged at 3000× g for 5 min. To suppress the background signals caused by water, a tailored gradient pulse sequence known as water suppression by gradient-tailored excitation (WATERGATE) was also included. A train of 50 ms Gaussian-shaped selective pulses was used to selectively excite and saturate Pgp for two seconds, and a relaxation delay of five seconds was also used. The STD NMR spectra for both the control and the samples were obtained through phase cycling, where the Pgp irradiation resonance was alternated between 1.5 ppm and 42 ppm on and off resonance, respectively, for 512 scans, creating the ^1H NMR spectrum.\nFor this experiment, the NMR studies were performed on a Bruker Avance NEO 800 MHz NMR spectrometer with a 1.7 mm TCI H{CN} probe at 25 °C. The STD NMR data generated were analyzed using iNMR software (Nucleomatic, Molfetta, Italy), Igor Pro 6.2, and Mnova 14.2.0 (Mastrelab Research S.L., Santiago de Compostela, Spain).", "remark": "listed apart in the source"}, "[4]": {"conditions": "1 µM proteoliposome, excitation 295 nm, emission 330 nm, absence of ATP and co-factors"}, "[5]": {"conditions": "250 µM drug, 3.2 mM AMPPNP, 21 °C"}, "[6]": {"conditions": "250 µM drug, 3.2 mM AMPPNP, inferred from Ksv"}, "[7]": {"conditions": "250 µM drug, absence of AMPPNP, 21 °C, apo-Pgp 2.5 ± 0.04"}, "[8]": {"conditions": "250 µM drug, no AMPPNP, inferred from Ksv"}}, "note": "Where “and” joins values, the source holds several entries; their conditions need not be identical. Equal entries are not always repeated. Where two headings read alike, the source gives them in different places.", "data": [{"smiles": "C[C@H]1O[C@@H](O[C@H]2[C@@H](O)C[C@H](O[C@H]3[C@@H](O)C[C@H](O[C@H]4CC[C@@]5(C)[C@H](CC[C@@H]6[C@@H]5C[C@@H](O)[C@]5(C)[C@@H](C7=CC(=O)OC7)CC[C@]65O)C4)O[C@@H]3C)O[C@@H]2C)C[C@H](O)[C@@H]1O", "note": "[Digoxin]", "values": [{"measurement": "Kd", "setting": "[1]", "value": "6.85 ± 0.83", "unit": "µM"}, {"measurement": "Stern-Volmer constant (Ksv) from CG-induced tryptophan fluorescence quenching in Pgp", "setting": "[1]", "value": "0.146 ± 0.0117 and 0.146 ± 0.0117 µM^−1"}, {"measurement": "Drug-induced Ksv of Pgp (acrylamide quenching), AMPPNP (+)", "setting": "[2]", "value": "1.51 ± 0.02 and 1.51 ± 0.02 M^−1"}, {"measurement": "Drug-induced Ksv of Pgp (acrylamide quenching), AMPPNP (-)", "setting": "[2]", "value": "2.55 ± 0.06 and 2.55 ± 0.06 M^−1"}, {"measurement": "Pgp conformation upon drug binding in the absence of a nucleotide", "setting": "[2]", "value": "no effect"}, {"measurement": "Pgp conformation with drug in the presence of a nucleotide", "setting": "[2]", "value": "outward open"}, {"measurement": "Interaction (Region/Group) Pgp (STDD-NMR Data)", "setting": "[3]; mouse, not told, 1 mM, pH 7.4", "value": "Protons on C3,C18, C19 of steroid; C22 of lactone; C3,C5,C6 of sugar"}]}, {"smiles": "C[C@]12CC[C@H](O)C[C@H]1CC[C@@H]1[C@@H]2CC[C@]2(C)[C@@H](C3=CC(=O)OC3)CC[C@]12O", "note": "[Digitoxigenin, (3β,5β)-3,14-Dihydroxy-card-20(22)-enolide]", "values": [{"measurement": "Kd", "setting": "[1]", "value": "56.7 ± 15.6", "unit": "µM"}, {"measurement": "Stern-Volmer constant (Ksv) from CG-induced tryptophan fluorescence quenching in Pgp", "setting": "[1]; [4]", "value": "0.01765 ± 0.0048", "unit": "µM⁻¹"}, {"measurement": "Drug-induced Ksv of Pgp (acrylamide quenching), AMPPNP (+)", "setting": "[2]; [5]", "value": "1.51 ± 0.02", "unit": "M⁻¹"}, {"measurement": "Drug-induced Ksv of Pgp (acrylamide quenching), AMPPNP (+)", "setting": "[2]; 250 µM drug, 3.2 mM AMPPNP, 21 °C, listed as digitoxigenin", "value": "1.51 ± 0.02 M⁻¹ and 1.51 ± 0.01 M⁻¹"}, {"measurement": "Pgp conformation with drug in the presence of a nucleotide", "setting": "[2]; [6]", "value": "outward open"}, {"measurement": "Drug-induced Ksv of Pgp (acrylamide quenching), AMPPNP (-)", "setting": "[2]; [7]", "value": "1.91 ± 0.04", "unit": "M⁻¹"}, {"measurement": "Pgp conformation upon drug binding in the absence of a nucleotide", "setting": "[2]; [8]", "value": "intermediate"}, {"measurement": "Interaction (Region/Group) Pgp (STDD-NMR Data)", "setting": "[3]; 1 mM drug, 1 µM Pgp, 25 °C", "value": "Protons on C1, C12, C18, C19 of steroid; C22 of lactone"}]}, {"smiles": "C[C@]12CC[C@H](O)C[C@H]1CC[C@@H]1[C@@H]2C[C@@H](O)[C@]2(C)[C@@H](C3=CC(=O)OC3)CC[C@]12O", "note": "[Digoxigenin, 3β,12β,14-Trihydroxy-5β,20(22)-cardenolide]", "values": [{"measurement": "Stern-Volmer constant (Ksv) from CG-induced tryptophan fluorescence quenching in Pgp", "setting": "[1]; [4]", "value": "0.09839 ± 0.0146", "unit": "µM⁻¹"}, {"measurement": "Drug-induced Ksv of Pgp (acrylamide quenching), AMPPNP (+)", "setting": "[2]; [5]", "value": "1.70 ± 0.01", "unit": "M⁻¹"}, {"measurement": "Pgp conformation with drug in the presence of a nucleotide", "setting": "[2]; [6]", "value": "outward open"}, {"measurement": "Drug-induced Ksv of Pgp (acrylamide quenching), AMPPNP (-)", "setting": "[2]; [7]", "value": "2.26 ± 0.04", "unit": "M⁻¹"}, {"measurement": "Pgp conformation upon drug binding in the absence of a nucleotide", "setting": "[2]; [8]", "value": "intermediate"}, {"measurement": "Interaction (Region/Group) Pgp (STDD-NMR Data)", "setting": "[3]; 1 mM drug, 1 µM Pgp, 25 °C", "value": "Protons on C1, C3,C12, C17, C18, C19 of steroid; C21, C22 of lactone"}]}]}
